Test results: PubChem BioAssay (NCI)
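Where inhibition never reached the appropriate level, the endpoint shown equals the highest concentration tested. Otherwise, values were interpolated linearly from a five-concentration, 48-hour dose response in 96-well plates. GI50 is the concentration that inhibits growth by half. Definition used: TGI = concentration required for complete inhibition of growth.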

Legend:
Assay in all cases: growth of human tumour cells (NCI), 48 h
LOX IMVI melanoma = test system: LOX IMVI melanoma
T-47D breast = test system: T-47D breast
SK-OV-3 ovarian = test system: SK-OV-3 ovarian
OVCAR-4 ovarian = test system: OVCAR-4 ovarian
MOLT-4 leukemia = test system: MOLT-4 leukemia
OVCAR-8 ovarian = test system: OVCAR-8 ovarian
HCT-15 colon = test system: HCT-15 colon
OVCAR-3 ovarian = test system: OVCAR-3 ovarian
SW-620 colon = test system: SW-620 colon
HS 578T breast = test system: HS 578T breast
A549 NSCLC = test system: A549 NSCLC
SF-268 CNS = test system: SF-268 CNS
HCT-116 colon = test system: HCT-116 colon
HOP-62 NSCLC = test system: HOP-62 NSCLC
SNB-19 CNS = test system: SNB-19 CNS
M14 melanoma = test system: M14 melanoma
DU-145 prostate = test system: DU-145 prostate
PC-3 prostate = test system: PC-3 prostate
NCI-H226 lung = test system: NCI-H226 lung
MDA-MB-231 breast = test system: MDA-MB-231 breast
786-0 renal = test system: 786-0 renal
MDA-MB-435 = test system: MDA-MB-435
COLO 205 colon = test system: COLO 205 colon
NCI-H460 lung = test system: NCI-H460 lung
KM12 colon = test system: KM12 colon
OVCAR-5 ovarian = test system: OVCAR-5 ovarian
K-562 leukemia = test system: K-562 leukemia
MCF7 breast = test system: MCF7 breast
UACC-257 melanoma = test system: UACC-257 melanoma
SK-MEL-2 melanoma = test system: SK-MEL-2 melanoma
SNB-75 CNS = test system: SNB-75 CNS
NCI-H522 lung = test system: NCI-H522 lung
UACC-62 melanoma = test system: UACC-62 melanoma
U251 CNS = test system: U251 CNS
HL-60(TB) leukemia = test system: HL-60(TB) leukemia
SN12C renal = test system: SN12C renal
BT-549 breast = test system: BT-549 breast
HT29 colon = test system: HT29 colon
IGROV1 ovarian = test system: IGROV1 ovarian
SF-539 CNS = test system: SF-539 CNS
NCI/ADR-RES ovarian = test system: NCI/ADR-RES ovarian
MALME-3M melanoma = test system: MALME-3M melanoma
SR leukemia = test system: SR leukemia
SF-295 CNS = test system: SF-295 CNS
CCRF-CEM leukemia = test system: CCRF-CEM leukemia
SK-MEL-28 melanoma = test system: SK-MEL-28 melanoma
RXF 393 renal = test system: RXF 393 renal
HOP-92 NSCLC = test system: HOP-92 NSCLC
A498 renal = test system: A498 renal
ACHN renal = test system: ACHN renal
HCC-2998 colon = test system: HCC-2998 colon
CAKI-1 renal = test system: CAKI-1 renal
SK-MEL-5 melanoma = test system: SK-MEL-5 melanoma
UO-31 renal = test system: UO-31 renal
RPMI-8226 leukemia = test system: RPMI-8226 leukemia

## O=C1C(Br)=CC2C1C1C3CCC3C2(Br)C12OCCO2 (stereo not given)
LOX IMVI melanoma
  GI50: 1.21 µM
  TGI: 3.74 µM
T-47D breast
  GI50: 2.48 µM
  TGI: 12.9 µM
SK-OV-3 ovarian
  GI50: 4.3 µM
  TGI: 15.3 µM
OVCAR-4 ovarian
  GI50: 2.79 µM
  TGI: 14.7 µM
MOLT-4 leukemia
  GI50: 3.64 µM
  TGI: 10.8 µM
OVCAR-8 ovarian
  GI50: 2.8 µM
  TGI: 12.3 µM
HCT-15 colon
  GI50: 1.22 µM
  TGI: 3.49 µM
OVCAR-3 ovarian
  GI50: 3.24 µM
  TGI: 9.88 µM
SW-620 colon
  GI50: 3.12 µM
  TGI: 11.6 µM
HS 578T breast
  GI50: 3.46 µM
  TGI: 71 µM
A549 NSCLC
  GI50: 2.29 µM
  TGI: 10.9 µM
SF-268 CNS
  GI50: 2.5 µM
  TGI: 15.5 µM
HCT-116 colon
  GI50: 2.08 µM
  TGI: 10.3 µM
HOP-62 NSCLC
  GI50: 4.25 µM
  TGI: 16.5 µM
SNB-19 CNS
  GI50: 9.65 µM
  TGI: 23 µM
M14 melanoma
  GI50: 4.45 µM
  TGI: 19.9 µM
DU-145 prostate
  GI50: 3.22 µM
  TGI: 13.8 µM
PC-3 prostate
  GI50: 3.47 µM
  TGI: 19 µM
NCI-H226 lung
  GI50: 3.55 µM
  TGI: 20.4 µM
MDA-MB-231 breast
  GI50: 1.84 µM
  TGI: 11.4 µM
786-0 renal
  GI50: 4.32 µM
  TGI: 16 µM
MDA-MB-435
  GI50: 2.93 µM
  TGI: 13.4 µM
COLO 205 colon
  GI50: 3.35 µM
  TGI: 10.9 µM
NCI-H460 lung
  GI50: 2.08 µM
  TGI: 10.2 µM
KM12 colon
  GI50: 2.39 µM
  TGI: 8.4 µM
OVCAR-5 ovarian
  GI50: 2.47 µM
  TGI: 8.91 µM
K-562 leukemia
  GI50: 2.98 µM
  TGI: 13 µM
MCF7 breast
  GI50: 1.98 µM
  TGI: 12.8 µM
UACC-257 melanoma
  GI50: 2.14 µM
  TGI: 12.5 µM
SK-MEL-2 melanoma
  GI50: 3.17 µM
  TGI: 9.09 µM
SNB-75 CNS
  GI50: 3.42 µM
  TGI: 34.7 µM
NCI-H522 lung
  GI50: 1.82 µM
  TGI: 4.73 µM
UACC-62 melanoma
  GI50: 2.87 µM
  TGI: 14.1 µM
U251 CNS
  GI50: 2.88 µM
  TGI: 13 µM
HL-60(TB) leukemia
  GI50: 2.2 µM
  TGI: 5.66 µM
SN12C renal
  GI50: 3.08 µM
  TGI: 15.3 µM
BT-549 breast
  GI50: 5.03 µM
  TGI: 18.1 µM
HT29 colon
  GI50: 2.75 µM
  TGI: 10.3 µM
IGROV1 ovarian
  GI50: 2.89 µM
  TGI: 12.7 µM
SF-539 CNS
  GI50: 2.15 µM
  TGI: 5.99 µM
NCI/ADR-RES ovarian
  GI50: 4.84 µM
  TGI: 41 µM
MALME-3M melanoma
  GI50: 4.45 µM
  TGI: 21.3 µM
SR leukemia
  GI50: 0.721 µM
  TGI: 6.57 µM
SF-295 CNS
  GI50: 9.69 µM
  TGI: 27.5 µM
CCRF-CEM leukemia
  GI50: 1.82 µM
  TGI: 10.5 µM
SK-MEL-28 melanoma
  GI50: 3.98 µM
  TGI: 18 µM
RXF 393 renal
  GI50: 2.64 µM
  TGI: 11.6 µM
HOP-92 NSCLC
  GI50: 5.08 µM
  TGI: 21.8 µM
A498 renal
  GI50: 2.99 µM
  TGI: 11.4 µM
ACHN renal
  GI50: 2.94 µM
  TGI: 12.2 µM
HCC-2998 colon
  GI50: 6.6 µM
  TGI: 20.5 µM
CAKI-1 renal
  GI50: 4.1 µM
  TGI: 17.6 µM
SK-MEL-5 melanoma
  GI50: 3.19 µM
  TGI: 14.4 µM
UO-31 renal
  GI50: 3.4 µM
  TGI: 13.4 µM
RPMI-8226 leukemia
  GI50: 1.71 µM
  TGI: 5.76 µM
